Laboratory results: patent publication US9586959B2, “Substituted tricyclic heterocycles as histamine 4 receptor inhibitors” (C&C RESEARCH LABORATORIES, priority 2011, dated 2017)

Legend:
[1] = Rat pharmacokinetics (oral); format: in vivo; conditions: plasma, 10 mg/kg, SD rat, 2 mg/mL solution at 5 mL/kg; for AUC(0-inf): read-out: Rat pharmacokinetics AUCinf; for half-life: read-out: Rat pharmacokinetics t1/2 (converted)
Description: The weight of each ICR mouse and SD rat was properly 20˜30 g and 200˜300 g, and dosage of the compound of the present invention was 10 mL/kg for mice and 5 mL/kg for rats, and administered orally using Zonde. Blood collection was performed at 0.25, 0.5, 1, 2, 4, 6, 8 and 24 hours by orbital venous blood collection using a capillary tube coated with an anticoagulant, and then plasma was isolated using a centrifuge and kept in a freezer.
Plasma collected from animals and standard concentration material were pretreated using solid-phase extraction, and concentration of the compound of the invention was determined using a liquid chromatography mass spectrometer (Agilent HPLC, API-3000).
According to the resulting concentration value, the pharmacokinetics parameter was found using WinNonlin (Version 6.2) and half-life (t1/2), maximum blood concentration (Cmax) and infinite area under the curve (AUCinf) are shown in Tables 6 and 7 below.

[2] = test system: histamine-induced mast cell migration (trachea); test: Histamine-induced mast cell migration; format: in vivo, Balb/c mice; conditions: 20 mg/kg oral, 0.1 M histamine aerosol, 2 days
Description: Female, Balb/c mice (7 weeks old, 20±3 g) were purchased from OrientBio Co., Ltd.
The animals were housed under conditions of controlled temperature (23±3° C.), humidity (50±5%) and lighting with food and water available ad libitum.
Mice were dosed with either vehicle (20% cyclodextrin in second distilled water) or the compound by orally administration. The Compound (20 mg/kg) dissolved in a vehicle and administered orally at a volume of 10 mL/kg. After 15 minutes, mice were challenged by a 20 min aerosol inhalation of PBS (phosphate buffered saline) or 0.1 M histamine (dissolving in PBS). This process was repeated for 2 days. After a final challenge, the tracheae were cleared of blood via perfusion of PBS and tracheae were extracted, the tracheae were fixed in 10% (w/v) formaldehyde for subsequent paraffin cross-sectioning and toluidine blue staining. Total mast cells were calculated, and a mean was reported. (The Journal of Pharmacology and Experimental Therapeutics, 2004, 309, 404-413). Statistical analysis was analyzed using one-way ANOVA with Dunnett test. Values of p<0.05 were considered statistically significant.

[3] = test system: Dermatophagoides farina-induced atopic dermatitis, NC/Nga mice; test: Dermatophagoides farina-induced atopic dermatitis NC/Nga mouse model; format: in vivo; conditions: BID, oral, 3 weeks, control group (Df) 9.0
Description: Female, NC/Nga mice (3 weeks old, 15-17 g) were purchased from Central Lab. Animal Inc. The animals were housed in conditions of controlled temperature (23±3° C.), humidity (50±5%) and lighting with food and water available ad libitum.
The hair of back of the mice was shaved with clipper, and the remaining hair was removed completely using shaving cream. For barrier disruption, 150 μL of 4% sodium dodecyl sulfate (SDS) was applied to the shaved back skin The Df ointment (100 mg/mouse) was applied twice a week for 3 weeks. The compound were administered orally twice a day in the morning and afternoon for 3 weeks, and then the severity of dermatitis was evaluated on days 2, 7, 10, 14 and 21. The development of (1) erythema/haemorrhage, (2) scarring/dryness, (3) oedema, (4) excoriation/erosion was scored as 0 (none), 1 (mild), 2 (moderate) and 3 (severe). The total skin score was defined as the sum of the individual scores. (Scandinavian Journal of Immunol. 2011, 73, 536-545). Statistical analysis was analyzed using one-way ANOVA with Dunnett test. Values of p<0.05 were considered statistically.

SMILES | Cmax [1] | AUC(0-inf) [1] | half-life [1] | Mast cell migration (% change from control group) [2] | Scoring of Skin lesions (day 21) ([3]; 25 mg/kg) | Scoring of Skin lesions (day 21) ([3]; 50 mg/kg)
CN1CCN(c2nc3ncc(Cl)cc3n3cnnc23)CC1 [Compound 4, 8-Chloro-4-(4-methylpiperazin-1-yl)pyrido[2,3-e][1,2,4]triazolo[4,3-a]pyrazine] | 1950 ng/mL | 7740 ng·h/mL | 1.88 h | 70.3^1% |  | 
Clc1cnc2nc(N3CCNCC3)c3nncn3c2c1 [Compound 7, 8-Chloro-4-(piperazin-1-yl)pyrido[2,3-e][1,2,4]triazolo[4,3-a]pyrazine] | 1330 ng/mL | 3110 ng·h/mL | 1.62 h | 43.1^1% |  | 
CNC1CN(c2nc3ncc(Cl)cc3n3cnnc23)C1 [Compound 18, 1-(8-Chloropyrido[2,3-e][1,2,4]triazolo[4,3-a]pyrazin-4-yl)-N-methylazetidin-3-amine] | 2590 ng/mL | 4560 ng·h/mL | 1.04 h |  |  | 
CNC1CN(c2nc3ncc(Br)cc3n3cnnc23)C1 [Compound 24, 1-(8-Bromopyrido[2,3-e][1,2,4]triazolo[4,3-a]pyrazin-4-yl)-N-methylazetidin-3-amine] | 2420 ng/mL | 4510 ng·h/mL | 1.3 h | 60.0^1% | 7.2 | 4.4^1
